Reference: paper PMC12155335, “Phenethyl Acetate as an Agonist of Insect Odorant Receptor Co-Receptor (Orco): Molecular Mechanisms and Functional Insights” (International Journal of Molecular Sciences, 2025)

Assays:
[1] = biological target: T1, Or1a/Orco (Drosophila melanogaster, UniProt Q9VNB5+Q9W5G6); assay: Two-electrode voltage-clamp in Xenopus laevis oocytes expressing Or1a/Orco; format: cell-based, D. melanogaster; settings: TEVC; for odorant-evoked inward current (activation): −80 mV, octanol 30 μM, PA 10 μM (Figure 2A)
T1 construct: expressed in transfected cells; host or cells: Xenopus laevis oocytes injected with in vitro transcribed mRNA (pGEM-HE)
T1 sequence (Q9W5G6 1-392): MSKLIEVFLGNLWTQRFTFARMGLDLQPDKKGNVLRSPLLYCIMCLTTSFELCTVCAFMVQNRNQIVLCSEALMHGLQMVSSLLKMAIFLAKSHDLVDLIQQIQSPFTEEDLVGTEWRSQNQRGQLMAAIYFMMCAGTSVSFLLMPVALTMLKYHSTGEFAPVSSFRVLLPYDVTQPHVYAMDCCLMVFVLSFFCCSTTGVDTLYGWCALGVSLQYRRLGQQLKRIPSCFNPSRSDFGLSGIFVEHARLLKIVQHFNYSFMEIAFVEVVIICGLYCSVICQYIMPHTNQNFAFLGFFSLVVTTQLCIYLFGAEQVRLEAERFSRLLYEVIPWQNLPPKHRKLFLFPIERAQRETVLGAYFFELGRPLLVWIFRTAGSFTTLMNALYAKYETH
T1 sequence (Q9VNB5 1-486): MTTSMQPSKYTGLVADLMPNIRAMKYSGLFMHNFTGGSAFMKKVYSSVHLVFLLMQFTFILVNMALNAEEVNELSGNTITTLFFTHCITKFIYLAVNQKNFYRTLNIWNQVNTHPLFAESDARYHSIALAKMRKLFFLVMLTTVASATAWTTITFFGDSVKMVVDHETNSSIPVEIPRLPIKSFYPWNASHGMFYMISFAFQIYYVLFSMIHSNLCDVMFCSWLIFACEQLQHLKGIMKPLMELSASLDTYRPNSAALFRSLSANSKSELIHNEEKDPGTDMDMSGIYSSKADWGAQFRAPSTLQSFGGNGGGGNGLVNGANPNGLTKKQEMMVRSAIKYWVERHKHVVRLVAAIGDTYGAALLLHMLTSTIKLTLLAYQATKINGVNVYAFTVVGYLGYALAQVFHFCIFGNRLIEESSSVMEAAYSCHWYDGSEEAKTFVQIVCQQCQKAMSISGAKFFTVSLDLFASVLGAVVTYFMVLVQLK
Method: (§1) The D. melanogaster Or subunits (Or1a, Or24a, and Or35a) (FlyBase IDs: FBgn0029521, FBgn0026394, and FBgn0028946) and the odorant receptor co-receptor Orco (FlyBase ID: FBgn0037324) were synthesized as complementary DNA by Cosmogenetech (Seoul, Republic of Korea). The synthesized cDNA constructs were subcloned into the pGEM-HE expression vector. Plasmid transformation was performed using Escherichia coli DH5α competent cells, and recombinant plasmids were isolated using a miniprep protocol. The integrity of the cloned sequences was confirmed by Sanger sequencing. For complementary RNA synthesis, D. melanogaster Or1a, Or24a, Or35a, and Orco cDNA were linearized with appropriate restriction endonucleases, and digestion efficiency was verified via agarose gel electrophoresis. In vitro transcription was carried out using T7 RNA polymerase (mMESSAGE mMACHINE T7 Transcription Kit; Thermo Fisher Scientific, Waltham, MA, USA). The resulting mRNA was precipitated, resuspended in DEPC-treated water, and stored at −80 °C for subsequent experiments.
(§2) Xenopus laevis frogs were obtained from the Korean Xenopus Resource Center for Research (KXRCR000001, Gangwon, Republic of Korea). The isolation and maintenance of Xenopus oocytes followed the standardized protocols described by Pyeon et al. and complied with the ethical guidelines of Chonnam National University (CNU IACUC-YB-2016-07, July 2016). Microinjection of 50 ng of mRNA per oocyte was performed using a nanoliter injector (Drummond Scientific, Vernon Hills, IL, USA). Following injection, the oocytes were incubated at 18 °C in a shaking incubator to facilitate optimal protein expression before electrophysiological recordings.
(§3) The two-electrode voltage-clamp (TEVC) experiments were conducted following established protocols as described in Lee et al.. […]
(§4) All values are presented as the mean ± S.E.M. (standard error of the mean) following data analysis. Data collected using the two-electrode voltage-clamp technique were analyzed with SigmaPlot 10.0 software. […]

[2] = biological target: T2, Or24a/Orco (Drosophila melanogaster, UniProt P81913+Q9VNB5); assay: Two-electrode voltage-clamp in Xenopus laevis oocytes expressing Or24a/Orco; format: cell-based, D. melanogaster; settings: TEVC; for odorant-evoked inward current (activation): −80 mV, octanol 10 μM, PA 10 μM (Figure 2B)
T2 construct: expressed in transfected cells; host or cells: Xenopus laevis oocytes injected with in vitro transcribed mRNA (pGEM-HE)
T2 sequence (P81913 1-398): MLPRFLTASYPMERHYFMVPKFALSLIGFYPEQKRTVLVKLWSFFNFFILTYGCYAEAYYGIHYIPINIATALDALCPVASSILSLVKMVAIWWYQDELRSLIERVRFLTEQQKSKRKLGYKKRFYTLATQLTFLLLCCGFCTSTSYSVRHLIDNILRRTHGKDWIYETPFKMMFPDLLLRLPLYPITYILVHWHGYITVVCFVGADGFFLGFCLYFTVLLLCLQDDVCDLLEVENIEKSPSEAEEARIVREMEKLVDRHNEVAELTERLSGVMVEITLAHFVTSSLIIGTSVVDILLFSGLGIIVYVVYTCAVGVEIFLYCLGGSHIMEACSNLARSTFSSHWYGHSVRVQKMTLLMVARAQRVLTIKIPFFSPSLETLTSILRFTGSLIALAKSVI
T2 sequence (Q9VNB5 1-486): T1 sequence (Q9VNB5 1-486)
Method: as §1, §2, §3, §4

[3] = biological target: T3, Or35a/Orco (Drosophila melanogaster, UniProt Q9V3Q2+Q9VNB5); assay: Two-electrode voltage-clamp in Xenopus laevis oocytes expressing Or35a/Orco; format: cell-based, D. melanogaster; settings: TEVC; for odorant-evoked inward current (activation): −80 mV, octanol 10 μM, PA 10 μM (Figure 2C)
T3 construct: expressed in transfected cells; host or cells: Xenopus laevis oocytes injected with in vitro transcribed mRNA (pGEM-HE)
T3 sequence (Q9V3Q2 1-409): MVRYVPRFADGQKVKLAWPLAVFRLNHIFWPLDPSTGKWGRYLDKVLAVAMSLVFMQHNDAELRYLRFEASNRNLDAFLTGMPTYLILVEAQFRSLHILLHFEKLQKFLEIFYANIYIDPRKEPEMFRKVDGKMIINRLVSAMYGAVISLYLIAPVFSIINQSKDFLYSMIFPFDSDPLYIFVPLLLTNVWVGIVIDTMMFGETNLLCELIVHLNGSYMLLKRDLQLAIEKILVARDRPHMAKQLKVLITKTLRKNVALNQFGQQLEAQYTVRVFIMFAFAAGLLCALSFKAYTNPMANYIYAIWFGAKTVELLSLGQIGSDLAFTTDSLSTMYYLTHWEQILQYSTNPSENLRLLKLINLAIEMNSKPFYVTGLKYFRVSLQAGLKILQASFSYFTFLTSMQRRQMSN
T3 sequence (Q9VNB5 1-486): T1 sequence (Q9VNB5 1-486)
Method: as §1, §2, §3, §4

[4] = biological target: T4, Orco homomers (Drosophila melanogaster, UniProt Q9VNB5); assay: Two-electrode voltage-clamp in Xenopus laevis oocytes expressing Orco homomers; format: cell-based; settings: for odorant-evoked inward current (activation): Orco alone, −80 mV, octanol 10 μM, PA 10 μM (Figure 2D)
T4 construct: expressed in transfected cells; host or cells: Xenopus laevis oocytes injected with Orco mRNA
T4 sequence (Q9VNB5 1-486): T1 sequence (Q9VNB5 1-486)
Method: as §1, §2
(§5) The two-electrode voltage-clamp (TEVC) experiments were conducted following established protocols as described in Lee et al.. This methodology ensures the accurate measurement of odorant receptor activation and has been widely used in previous studies on insect olfactory receptors. The molecular interaction between the odorant receptor (Or) and its ligand was examined using Or-expressing oocytes. Electrophysiological recordings were conducted with a two-electrode voltage-clamp system (OC-725C; Warner Instruments, Hamden, CT, USA) and digitized using a Digidata acquisition system (1322A; Molecular Devices, Sunnyvale, CA, USA). The oocyte membrane potential was clamped at −80 mV. Stock solutions of each compound were prepared by dissolving them in ND96 buffer (58.44 mM NaCl, 2 mM KCl, 1 mM MgCl2, 1.8 mM CaCl2, 5 mM HEPES, pH of 7.4) at the appropriate concentrations before use. […]
as §4

[5] = biological target: W146A Orco (Drosophila melanogaster, UniProt Q9VNB5, W150A); assay: Two-electrode voltage-clamp, W146A mutant Orco; format: cell-based, D. melanogaster
Method: as §2, §3
(§6) To validate the potential binding sites predicted by 3D protein–ligand docking simulations, molecular characterization was conducted through site-directed mutagenesis. […] The effect of these mutations on PA-binding affinity was evaluated through two-electrode voltage-clamp recordings.
as §4

[6] = biological target: E153A Orco (Drosophila melanogaster, UniProt Q9VNB5); assay: Two-electrode voltage-clamp, E153A mutant Orco; format: cell-based, D. melanogaster; settings: TEVC
Method: as §2, §3, §6, §4

[7] = system: double mutation (W146A + E153A) Orco; assay: Two-electrode voltage-clamp, double-mutant Orco; format: cell-based, D. melanogaster; settings: TEVC (Figure 5)
Method: as §2, §3, §6, §4

[8] = system: uninjected oocytes; assay: Two-electrode voltage-clamp control on uninjected oocytes; format: cell-based, Xenopus laevis; settings: control experiment, TEVC
Method: as §2
as §5, with “mV.” for “mV. Stock solutions of each compound were prepared by dissolving them in ND96 buffer (58.44 mM NaCl, 2 mM KCl, 1 mM MgCl2, 1.8 mM CaCl2, 5 mM HEPES, pH of 7.4) at the appropriate concentrations before use.”

[9] = system: Or1a, Or24a, and Or35a co-expressed with mutant Orco; assay: Two-electrode voltage-clamp, Or1a, Or24a, Or35a co-expressed with mutant Orco; format: cell-based, D. melanogaster; settings: TEVC, 10 µM octanol, mutant Orco co-expressed with Ors
Method: as §2
The two-electrode voltage-clamp (TEVC) experiments were conducted following established protocols as described in Lee et al.. This methodology ensures the accurate measurement of odorant receptor activation and has been widely used in previous studies on insect olfactory receptors. The molecular interaction between the odorant receptor (Or) and its ligand was examined using Or-expressing oocytes. […]
as §6

[10] = Xenopus oocytes, holding potential −80 mV, mean ± SEM, read-out: half-maximal effective concentration (EC50)

W146A Orco, sequence (Q9VNB5 whole entry W150A): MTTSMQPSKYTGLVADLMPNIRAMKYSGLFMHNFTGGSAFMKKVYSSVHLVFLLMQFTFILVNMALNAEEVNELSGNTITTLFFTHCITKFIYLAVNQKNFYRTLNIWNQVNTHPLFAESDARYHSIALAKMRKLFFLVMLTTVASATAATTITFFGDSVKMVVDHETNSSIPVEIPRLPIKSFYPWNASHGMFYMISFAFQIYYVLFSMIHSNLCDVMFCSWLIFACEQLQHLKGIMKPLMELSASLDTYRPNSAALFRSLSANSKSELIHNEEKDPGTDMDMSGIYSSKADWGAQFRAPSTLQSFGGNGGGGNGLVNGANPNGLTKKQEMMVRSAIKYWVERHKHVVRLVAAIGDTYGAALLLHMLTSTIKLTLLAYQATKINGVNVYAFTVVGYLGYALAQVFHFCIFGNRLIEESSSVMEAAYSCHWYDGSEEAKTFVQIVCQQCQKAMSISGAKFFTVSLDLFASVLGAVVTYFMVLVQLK

| SMILES | EC50 [1, 10] [µM] | odorant-evoked inward current (activation) [1] | EC50 [2, 10] [µM] | odorant-evoked inward current (activation) [2] | EC50 [3, 10] [µM] | odorant-evoked inward current (activation) [3] | odorant-evoked inward current (activation) ([4]; TEVC) | voltage dependence of activation (current–voltage relationship) ([4]; voltage ramps, PA 0.3 µM and 3 µM, Orco homomeric receptor (Figure 3D)) | EC50 ([4]; wild-type Orco homomers, TEVC, Xenopus oocytes, holding potential −80 mV, mean ± SEM, read-out: half-maximal effective concentration (EC50)) [µM] | EC50 [5] [µM] | PA-induced currents versus wild type ([5]; single mutation W146A, TEVC, 10 µM PA (Figure 5)) | EC50 ([6]; E153A Orco homomers, Xenopus oocytes, −80 mV) [µM] | PA-induced currents versus wild type ([6]; single mutation E153A, 10 µM PA (Figure 5)) | PA activation versus wild type [7] | effect on uninjected oocytes [8] | activation by octanol with mutant Orco [9] |
| --- | --- | --- | --- | --- | --- | --- | --- | --- | --- | --- | --- | --- | --- | --- | --- | --- |
| CC(=O)OCCc1ccccc1 [PA, phenethyl acetate] | 2.1 ± 1.2 | induced inward currents | 2.8 ± 0.2 | induced inward currents | 5.9 ± 1.1 | induced inward currents | induced inward currents | voltage-independent activation | 0.4 ± 0.2 | 17.9 ± 2.1 | significantly reduced | 12.8 ± 1.9 | significantly reduced | nearly abolished | no effect | – |
| CCCCCCCCO [octanol, reference compound] | – | induced robust inward currents | – | induced robust inward currents | – | induced robust inward currents | failed to activate | – | – | – | – | – | – | – | – | remained consistent |
